In patent US20160289186A1, “FLUOROMETHYL-SUBSTITUTED PYRROLE CA[…]” (Grunenthal GmbH, priority 2013, published 2016):

target: T1, Human CaV2.2 channels (Homo sapiens, UniProt Q00975); test: Fluorescent (FLIPR) assay for CaV2.2 channels using potassium depolarization to induce channel opening; type: cell-based; conditions: 3 μM compound; 30 mM KCl assay buffer (inactivated channel state); HEK293 cells stably expressing human CaV2.2
T1 construct: expressed in transfected cells; host or cells: HEK293
T1 sequence (Q00975 whole entry): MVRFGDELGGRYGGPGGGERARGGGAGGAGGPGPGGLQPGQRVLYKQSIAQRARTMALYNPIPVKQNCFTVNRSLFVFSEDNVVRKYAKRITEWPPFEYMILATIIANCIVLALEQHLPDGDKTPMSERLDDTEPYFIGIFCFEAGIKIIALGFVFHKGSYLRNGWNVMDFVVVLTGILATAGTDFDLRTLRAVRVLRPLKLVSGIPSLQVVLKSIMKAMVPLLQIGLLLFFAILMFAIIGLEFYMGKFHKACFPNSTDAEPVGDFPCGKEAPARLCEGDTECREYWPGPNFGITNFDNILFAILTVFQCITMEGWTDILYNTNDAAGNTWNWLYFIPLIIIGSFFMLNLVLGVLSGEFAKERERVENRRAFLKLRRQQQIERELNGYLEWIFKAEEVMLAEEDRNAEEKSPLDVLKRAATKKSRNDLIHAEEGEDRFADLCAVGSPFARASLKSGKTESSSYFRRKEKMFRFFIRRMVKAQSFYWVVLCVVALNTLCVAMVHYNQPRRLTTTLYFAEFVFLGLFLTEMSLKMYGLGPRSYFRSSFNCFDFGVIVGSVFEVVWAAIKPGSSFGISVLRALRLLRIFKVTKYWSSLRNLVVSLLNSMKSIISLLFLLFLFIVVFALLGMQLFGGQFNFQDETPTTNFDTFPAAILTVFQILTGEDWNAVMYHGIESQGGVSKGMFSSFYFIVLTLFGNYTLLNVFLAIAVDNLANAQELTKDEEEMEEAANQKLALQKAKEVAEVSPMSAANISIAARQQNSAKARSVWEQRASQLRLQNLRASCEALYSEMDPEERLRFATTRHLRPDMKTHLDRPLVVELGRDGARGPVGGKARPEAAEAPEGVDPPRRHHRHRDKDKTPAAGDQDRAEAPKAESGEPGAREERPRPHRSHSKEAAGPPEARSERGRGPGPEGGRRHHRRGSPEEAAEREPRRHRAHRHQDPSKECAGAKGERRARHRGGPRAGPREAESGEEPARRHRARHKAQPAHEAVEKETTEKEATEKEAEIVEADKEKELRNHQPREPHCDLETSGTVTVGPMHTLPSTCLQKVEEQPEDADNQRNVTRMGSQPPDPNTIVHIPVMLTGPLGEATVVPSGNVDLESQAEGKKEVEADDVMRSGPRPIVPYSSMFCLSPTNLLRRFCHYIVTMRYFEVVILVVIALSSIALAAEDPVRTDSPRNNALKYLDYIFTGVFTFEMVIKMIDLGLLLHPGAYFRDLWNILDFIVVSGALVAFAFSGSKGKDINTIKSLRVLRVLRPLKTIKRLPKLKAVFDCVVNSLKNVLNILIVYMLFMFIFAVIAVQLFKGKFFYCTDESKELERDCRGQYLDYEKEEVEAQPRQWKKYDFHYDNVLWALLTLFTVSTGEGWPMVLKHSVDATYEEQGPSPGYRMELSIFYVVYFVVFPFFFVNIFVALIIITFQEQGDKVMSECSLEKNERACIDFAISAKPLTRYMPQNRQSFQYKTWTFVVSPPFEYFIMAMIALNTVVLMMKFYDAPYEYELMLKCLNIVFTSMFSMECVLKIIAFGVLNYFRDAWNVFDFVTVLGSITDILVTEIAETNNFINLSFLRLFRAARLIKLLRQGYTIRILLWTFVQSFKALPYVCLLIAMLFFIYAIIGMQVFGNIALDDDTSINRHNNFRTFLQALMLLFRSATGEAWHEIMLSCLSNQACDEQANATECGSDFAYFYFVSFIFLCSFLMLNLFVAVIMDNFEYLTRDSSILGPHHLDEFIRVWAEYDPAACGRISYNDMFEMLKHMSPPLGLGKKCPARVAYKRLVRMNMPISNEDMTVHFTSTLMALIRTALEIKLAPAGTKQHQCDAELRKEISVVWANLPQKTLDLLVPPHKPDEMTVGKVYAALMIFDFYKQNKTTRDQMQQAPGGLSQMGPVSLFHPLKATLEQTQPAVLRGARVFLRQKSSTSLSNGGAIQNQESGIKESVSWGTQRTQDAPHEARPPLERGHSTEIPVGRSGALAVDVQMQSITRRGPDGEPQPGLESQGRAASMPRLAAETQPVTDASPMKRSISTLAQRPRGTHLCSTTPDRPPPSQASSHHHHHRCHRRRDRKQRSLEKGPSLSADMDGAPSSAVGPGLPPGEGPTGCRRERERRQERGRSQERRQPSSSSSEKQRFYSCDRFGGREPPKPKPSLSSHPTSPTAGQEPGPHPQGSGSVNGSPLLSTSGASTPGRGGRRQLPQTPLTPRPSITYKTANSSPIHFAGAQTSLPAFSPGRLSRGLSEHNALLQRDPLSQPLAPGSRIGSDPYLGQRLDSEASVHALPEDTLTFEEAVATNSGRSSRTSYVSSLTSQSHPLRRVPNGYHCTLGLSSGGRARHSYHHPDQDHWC
T1 sequence (P54284 whole entry, further chain): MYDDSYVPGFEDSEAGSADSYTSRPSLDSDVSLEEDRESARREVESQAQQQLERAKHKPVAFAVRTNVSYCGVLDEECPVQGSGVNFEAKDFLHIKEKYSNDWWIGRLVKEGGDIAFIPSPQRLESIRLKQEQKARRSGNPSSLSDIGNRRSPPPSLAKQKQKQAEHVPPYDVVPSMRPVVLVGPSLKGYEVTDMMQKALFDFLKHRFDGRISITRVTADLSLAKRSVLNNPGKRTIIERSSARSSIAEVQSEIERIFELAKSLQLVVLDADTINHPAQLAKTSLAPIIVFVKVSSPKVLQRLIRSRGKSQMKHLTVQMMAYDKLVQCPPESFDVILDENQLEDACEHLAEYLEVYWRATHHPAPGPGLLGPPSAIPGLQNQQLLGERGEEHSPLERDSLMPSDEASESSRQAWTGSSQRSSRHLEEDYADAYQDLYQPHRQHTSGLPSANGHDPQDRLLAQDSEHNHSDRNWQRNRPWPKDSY
T1 sequence (P54289 25-1103, further chain): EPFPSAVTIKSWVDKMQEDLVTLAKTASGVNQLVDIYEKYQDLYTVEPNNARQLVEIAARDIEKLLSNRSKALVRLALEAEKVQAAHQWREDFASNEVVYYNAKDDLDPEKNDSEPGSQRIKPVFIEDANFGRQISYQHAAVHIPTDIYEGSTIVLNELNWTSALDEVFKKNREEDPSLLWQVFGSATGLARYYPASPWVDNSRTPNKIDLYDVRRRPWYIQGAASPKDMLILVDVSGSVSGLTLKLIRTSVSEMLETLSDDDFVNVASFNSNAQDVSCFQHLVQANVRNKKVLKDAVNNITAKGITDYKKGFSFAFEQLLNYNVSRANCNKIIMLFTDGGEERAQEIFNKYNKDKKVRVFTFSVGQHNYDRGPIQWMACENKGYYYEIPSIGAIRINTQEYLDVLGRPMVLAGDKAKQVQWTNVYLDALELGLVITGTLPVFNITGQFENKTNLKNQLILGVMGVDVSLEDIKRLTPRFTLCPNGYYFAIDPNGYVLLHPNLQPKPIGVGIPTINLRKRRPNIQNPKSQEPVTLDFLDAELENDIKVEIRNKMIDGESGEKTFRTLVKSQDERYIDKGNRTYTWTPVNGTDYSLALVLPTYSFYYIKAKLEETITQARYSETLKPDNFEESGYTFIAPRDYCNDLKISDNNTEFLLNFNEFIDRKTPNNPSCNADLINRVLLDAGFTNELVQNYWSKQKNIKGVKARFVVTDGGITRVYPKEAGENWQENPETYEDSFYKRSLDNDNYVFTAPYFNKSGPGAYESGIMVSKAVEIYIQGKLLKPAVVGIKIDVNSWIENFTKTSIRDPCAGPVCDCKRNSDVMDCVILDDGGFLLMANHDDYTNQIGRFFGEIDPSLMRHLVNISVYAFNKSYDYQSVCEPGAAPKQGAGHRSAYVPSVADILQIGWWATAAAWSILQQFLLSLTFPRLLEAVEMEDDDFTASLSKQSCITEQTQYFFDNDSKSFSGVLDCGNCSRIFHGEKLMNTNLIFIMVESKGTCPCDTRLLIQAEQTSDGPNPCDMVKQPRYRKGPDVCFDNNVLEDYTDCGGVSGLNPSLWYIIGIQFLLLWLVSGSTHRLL
Source text: In the process, the Ca^2+ influx is quantified in the FLIPR assay with the aid of a Ca^2+-sensitive dye (type Fluo-4, Molecular Probes Europe BV, Leiden, the Netherlands) in a fluorescent imaging plate reader (FLIPR 3, Molecular Devices, Sunnyvale, USA), as described hereinafter.
Human CaV2.2 channels were stably expressed in HEK293 cells together with alpha2-delta and beta subunits of voltage gated calcium channels. In addition, an inwardly rectifying potassium channel (Kir2.3) was stably expressed in these cells to augment control of the cell membrane potential by the concentration of extracellular potassium ions. Raise of the extracellular potassium concentration leads to depolarization of the membrane potential and thus regulates the voltage dependent state of CaV2.2 channels. For preparation, cells were seeded in black poly-D-lysine coated 96-well plates (Becton Dickinson, Biocoat 4640) in 100 μL medium [500 mL DMEM/F-12 plus Glutamax (Invitrogen 31331-093) plus 5.5 mL MEM NEAA 100× (Invitrogen 11140-035) plus 50 mL FBS decomplemented (Invitrogen 10270-106) plus 200 μg/mL Geneticin (Invitrogen 10131-027) plus 50 μg/mL Hygromycin B (Invitrogen 10687-010) plus 2 μg/mL Blasticidin (anti-bl5b Invivo-Gen) plus 0.2 μg/mL Puromycin (A 11138-03)] at a cell density of 30.000 cells per well. Plates were incubated at 37° C. (5% CO2) for 20 to 23 h. On the day of experiment medium was discarded and cells were loaded with Fluo 4 by addition of 100 μL of basic assay buffer (10 mM HEPES, 1 mM KCl, 149 mM NaCl, 0.8 mM CaCl2, 1.7 mM MgCl2, 10 mM Glucose, 0.1% BSA. pH 7.4) containing 2 μM Fluo 4 (Molecular Probes; F-14201), 0.01% pluronic acid (Molecular Probes; P-6866) and 2.5 mM probenecid (Molecular Probes; P36400). Cells were incubated in the dark at 25° C. for 60 min. Then dye containing buffer was discarded and 100 μL basic (1 mM KCl) or alternative (30 mM KCl) assay buffer was added. The alternative assay buffer contained altered concentrations of KCl (30 mM) and NaCl (120 mM) and was used in order to promote the inactivated channel state. After that 25 μL of basic or alternative assay buffer with or without test compound were added and cells were incubated again in the dark at 25° C. for 15 min. Fluorescence intensity was measured on a FLIPR 3 instrument (Molecular Devices Corp., Sunnyvale, Calif.) with excitation at 480 nm and emission at 535 nm. After continuously reading fluorescence for 30 sec, 50 μL of basic assay buffer containing 210 mM KCl (NaCl omitted) were added for depolarization. Peak fluorescent signal intensity was determined and the amplitude of the peak signal, normalized to base line, was used to measure channel inhibition by test compounds.

SMILES	Activity Category: %-Inhib (CaV2.2) @3 μM @30 mM KCl
CC(C)Cn1c(C(F)(F)F)cc(-c2ccc(F)cc2)c1C(=O)N(C)Cc1cnc(N(C)C)nc1 [Example 060]	A (%-Inhibition >95%)

same assay, conditions: 3 μM compound; 30 mM KCl assay buffer (inactivated channel state); HEK293 cells stably expressing human CaV2.2; read-out: Activity Category: %-Inhib (CaV2.2) @3 μM @30 mM KCl

SMILES	inhibition at 3 µM [%]
Cc1c(-c2ccc(Cl)cc2)c(C(=O)N2CCOCC2)n(CC2(O)CCCC2)c1C(F)(F)F [Example 096, [3-(4-Chlorophenyl)-1-[(1-hydroxy-cyclopentyl)-methyl]-4-methyl-5-(trifluoromethyl)-1H-pyrrol-2-yl]-morpholin-4-yl-methanone]	75 to 95
Cc1cnc(CN(C)C(=O)c2c(-c3ccc(Cl)cc3F)c(C)c(C(F)(F)F)n2C2CC2)cn1 [Example 024, 3-(4-Chloro-2-fluoro-phenyl)-1-cyclopropyl-N,4-dimethyl-N-[(5-methyl-pyrazin-2-yl)-methyl]-5-(trifluoromethyl)-1H-pyrrole-2-carboxylic acid amide]	> 95
Cc1c(-c2ncc(Cl)cn2)c(C(=O)N2CCOC(C)(C)C2)n(C(C)C)c1C(F)(F)F [Example 121, [3-(5-Chloro-pyrimidin-2-yl)-1-isopropyl-4-methyl-5-(trifluoromethyl)-1H-pyrrol-2-yl]-(2,2-dimethyl-morpholin-4-yl)-methanone]	40 to 75
CN(Cc1cnc(N(C)C)nc1)C(=O)c1c(-c2ccc(F)cc2)cc(C(F)(F)F)n1CC1CCCO1 (stereo not drawn) [Example 069, N-[(2-Dimethylamino-pyrimidin-5-yl)-methyl]-3-(4-fluorophenyl)-N-methyl-1-(tetrahydro-furan-2-yl-methyl)-5-(trifluoromethyl)-1H-pyrrole-2-carboxylic acid amide]	75 to 95
Cc1c(-c2ccc(Cl)cc2F)c(C(=O)N2CCOC(C)(C)C2)n(C2CC2)c1C(F)(F)F [Example 033, [3-(4-Chloro-2-fluoro-phenyl)-1-cyclopropyl-4-methyl-5-(trifluoromethyl)-1H-pyrrol-2-yl]-(2,2-dimethyl-morpholin-4-yl)-methanone]	75 to 95
Cc1c(-c2ccc(Cl)cc2)c(C(=O)N2CCOCC2)n(CCN2CC(F)(F)C2)c1C(F)(F)F [Example 098, [3-(4-Chlorophenyl)-1-[2-(3,3-difluoro-azetidin-1-yl)-ethyl]-4-methyl-5-(trifluoromethyl)-1H-pyrrol-2-yl]-morpholin-4-yl-methanone]	> 95
CCn1c(C(=O)N2CCOC(C)(C)C2)c(-c2ccc(Cl)cc2)c(C)c1C(F)(F)F [Example 103, [3-(4-Chlorophenyl)-1-ethyl-4-methyl-5-(trifluoromethyl)-1H-pyrrol-2-yl]-(2,2-dimethyl-morpholin-4-yl)-methanone]	75 to 95
CN(CC(C)(C)C)C(=O)c1c(-c2ccc(Cl)cc2)cc(C(F)(F)F)n1CC1CCCN1 (stereo not drawn) [Example 091, 3-(4-Chlorophenyl)-N-(2,2-dimethyl-propyl)-N-methyl-1-(pyrrolidin-2-yl-methyl)-5-(trifluoromethyl)-1H-pyrrole-2-carboxylic acid amide]	> 95
Cc1c(-c2ccc(Cl)cn2)c(C(=O)N(C)C(C)C)n(C(C)C)c1C(F)(F)F [Example 120, 3-(5-Chloro-pyridin-2-yl)-N,1-diisopropyl-N,4-dimethyl-5-(trifluoromethyl)-1H-pyrrole-2-carboxylic acid amide]	75 to 95
CN(CCS(C)(=O)=O)C(=O)c1c(-c2ccc(Cl)cc2)cc(C(F)(F)F)n1C1CC1 [Example 037, 3-(4-Chlorophenyl)-1-cyclopropyl-N-methyl-N-(2-methylsulfonyl-ethyl)-5-(trifluoromethyl)-1H-pyrrole-2-carboxylic acid amide]	40 to 75
Cc1c(-c2ccc(Cl)cc2)c(C(=O)N2CCOCC2)n(C)c1C(F)(F)F [Example 004, [3-(4-Chlorophenyl)-1,4-dimethyl-5-(trifluoromethyl)-1H-pyrrol-2-yl]-morpholin-4-yl-methanone]	75 to 95
Cc1noc(C2CCN(C(=O)c3c(-c4ccc(Cl)cc4F)c(C)c(C(F)(F)F)n3C3CC3)CC2)n1 [Example 028, [3-(4-Chloro-2-fluoro-phenyl)-1-cyclopropyl-4-methyl-5-(trifluoromethyl)-1H-pyrrol-2-yl]-[4-(3-methyl-[1,2,4]oxadiazol-5-yl)-piperidin-1-yl]-methanone]	75 to 95
Cc1c(-c2ccc(Cl)cc2)c(C(=O)N2CCOCC2)n(CC2(N)CC2)c1C(F)(F)F [Example 095, [1-[(1-Amino-cyclopropyl)-methyl]-3-(4-chlorophenyl)-4-methyl-5-(trifluoromethyl)-1H-pyrrol-2-yl]-morpholin-4-yl-methanone]	75 to 95
CC(C)Cn1c(C(F)(F)F)cc(-c2ccc(F)cc2)c1C(=O)N(C)C1CCOCC1 [Example 046, 3-(4-Fluorophenyl)-N-methyl-1-(2-methyl-propyl)-N-tetrahydro-pyran-4-yl-5-(trifluoromethyl)-1H-pyrrole-2-carboxylic acid amide]	> 95
CC(C)Cn1c(C(F)(F)F)cc(-c2ccc(F)cc2)c1C(=O)N1CCNC(=O)C1 [Example 063, 4-[3-(4-Fluorophenyl)-1-(2-methyl-propyl)-5-(trifluoromethyl)-1H-pyrrole-2-carbonyl]-piperazin-2-one]	40 to 75
CN(CC(C)(C)CO)C(=O)c1c(-c2ccc(Cl)cc2)cc(C(F)(F)F)n1C1CC1 [Example 036, 3-(4-Chlorophenyl)-1-cyclopropyl-N-(3-hydroxy-2,2-dimethyl-propyl)-N-methyl-5-(trifluoromethyl)-1H-pyrrole-2-carboxylic acid amide]	75 to 95
Cc1c(-c2ccc(Cl)cn2)c(C(=O)N2CCOC(C)(C)C2)n(C(C)C)c1C(F)(F)F [Example 112, [3-(5-Chloro-pyridin-2-yl)-1-isopropyl-4-methyl-5-(trifluoromethyl)-1H-pyrrol-2-yl]-(2,2-dimethyl-morpholin-4-yl)-methanone]	40 to 75
Cc1c(-c2ccc(Cl)cc2)c(C(=O)N2CCOC(C)(C)C2)n(CC(C)C)c1C(F)(F)F [Example 064, [3-(4-Chlorophenyl)-4-methyl-1-(2-methyl-propyl)-5-(trifluoromethyl)-1H-pyrrol-2-yl]-(2,2-dimethyl-morpholin-4-yl)-methanone]	75 to 95
Cc1c(-c2ccc(Cl)cc2)c(C(=O)N(C)CC(C)(C)C(N)=O)n(CC(C)C)c1C(F)(F)F [Example 052, N-(2-Carbamoyl-2-methyl-propyl)-3-(4-chlorophenyl)-N,4-dimethyl-1-(2-methyl-propyl)-5-(trifluoromethyl)-1H-pyrrole-2-carboxylic acid amide]	75 to 95
CC(C)Cn1c(C(F)(F)F)cc(-c2ccc(F)cc2)c1C(=O)N(C)CC(C)(C)CN1CCOCC1 [Example 054, N-(2,2-Dimethyl-3-morpholin-4-yl-propyl)-3-(4-fluorophenyl)-N-methyl-1-(2-methyl-propyl)-5-(trifluoromethyl)-1H-pyrrole-2-carboxylic acid amide]	75 to 95
Cc1c(-c2ccc(Cl)cc2)c(C(=O)N(C)CCS(C)(=O)=O)n(C(C)C)c1C(F)(F)F [Example 110, 3-(4-Chlorophenyl)-1-isopropyl-N,4-dimethyl-N-(2-methylsulfonyl-ethyl)-5-(trifluoromethyl)-1H-pyrrole-2-carboxylic acid amide]	75 to 95
CN(CC(C)(C)C)C(=O)c1c(-c2ccc(Cl)cc2)cc(C(F)(F)F)n1C1CC1 [Example 035, 3-(4-Chlorophenyl)-1-cyclopropyl-N-(2,2-dimethyl-propyl)-N-methyl-5-(trifluoromethyl)-1H-pyrrole-2-carboxylic acid amide]	40 to 75
O=C(c1c(-c2ccc(F)cc2)cc(C(F)(F)F)n1CC1CCCO1)N1CCOCC1 (stereo not drawn) [Example 081, [3-(4-Fluorophenyl)-1-(tetrahydro-furan-2-yl-methyl)-5-(trifluoromethyl)-1H-pyrrol-2-yl]-morpholin-4-yl-methanone]	40 to 75
